Source: PMC3412150 (Circulation research, 2012)

Molecular target: Nav1.8 (SCN10A) (Homo sapiens, UniProt Q9Y5Y9)
Assay: whole-cell voltage clamp, transfected ND7/[…] cells
Format: cell-based

Nav1.8 (SCN10A), sequence (Q9Y5Y9 whole entry): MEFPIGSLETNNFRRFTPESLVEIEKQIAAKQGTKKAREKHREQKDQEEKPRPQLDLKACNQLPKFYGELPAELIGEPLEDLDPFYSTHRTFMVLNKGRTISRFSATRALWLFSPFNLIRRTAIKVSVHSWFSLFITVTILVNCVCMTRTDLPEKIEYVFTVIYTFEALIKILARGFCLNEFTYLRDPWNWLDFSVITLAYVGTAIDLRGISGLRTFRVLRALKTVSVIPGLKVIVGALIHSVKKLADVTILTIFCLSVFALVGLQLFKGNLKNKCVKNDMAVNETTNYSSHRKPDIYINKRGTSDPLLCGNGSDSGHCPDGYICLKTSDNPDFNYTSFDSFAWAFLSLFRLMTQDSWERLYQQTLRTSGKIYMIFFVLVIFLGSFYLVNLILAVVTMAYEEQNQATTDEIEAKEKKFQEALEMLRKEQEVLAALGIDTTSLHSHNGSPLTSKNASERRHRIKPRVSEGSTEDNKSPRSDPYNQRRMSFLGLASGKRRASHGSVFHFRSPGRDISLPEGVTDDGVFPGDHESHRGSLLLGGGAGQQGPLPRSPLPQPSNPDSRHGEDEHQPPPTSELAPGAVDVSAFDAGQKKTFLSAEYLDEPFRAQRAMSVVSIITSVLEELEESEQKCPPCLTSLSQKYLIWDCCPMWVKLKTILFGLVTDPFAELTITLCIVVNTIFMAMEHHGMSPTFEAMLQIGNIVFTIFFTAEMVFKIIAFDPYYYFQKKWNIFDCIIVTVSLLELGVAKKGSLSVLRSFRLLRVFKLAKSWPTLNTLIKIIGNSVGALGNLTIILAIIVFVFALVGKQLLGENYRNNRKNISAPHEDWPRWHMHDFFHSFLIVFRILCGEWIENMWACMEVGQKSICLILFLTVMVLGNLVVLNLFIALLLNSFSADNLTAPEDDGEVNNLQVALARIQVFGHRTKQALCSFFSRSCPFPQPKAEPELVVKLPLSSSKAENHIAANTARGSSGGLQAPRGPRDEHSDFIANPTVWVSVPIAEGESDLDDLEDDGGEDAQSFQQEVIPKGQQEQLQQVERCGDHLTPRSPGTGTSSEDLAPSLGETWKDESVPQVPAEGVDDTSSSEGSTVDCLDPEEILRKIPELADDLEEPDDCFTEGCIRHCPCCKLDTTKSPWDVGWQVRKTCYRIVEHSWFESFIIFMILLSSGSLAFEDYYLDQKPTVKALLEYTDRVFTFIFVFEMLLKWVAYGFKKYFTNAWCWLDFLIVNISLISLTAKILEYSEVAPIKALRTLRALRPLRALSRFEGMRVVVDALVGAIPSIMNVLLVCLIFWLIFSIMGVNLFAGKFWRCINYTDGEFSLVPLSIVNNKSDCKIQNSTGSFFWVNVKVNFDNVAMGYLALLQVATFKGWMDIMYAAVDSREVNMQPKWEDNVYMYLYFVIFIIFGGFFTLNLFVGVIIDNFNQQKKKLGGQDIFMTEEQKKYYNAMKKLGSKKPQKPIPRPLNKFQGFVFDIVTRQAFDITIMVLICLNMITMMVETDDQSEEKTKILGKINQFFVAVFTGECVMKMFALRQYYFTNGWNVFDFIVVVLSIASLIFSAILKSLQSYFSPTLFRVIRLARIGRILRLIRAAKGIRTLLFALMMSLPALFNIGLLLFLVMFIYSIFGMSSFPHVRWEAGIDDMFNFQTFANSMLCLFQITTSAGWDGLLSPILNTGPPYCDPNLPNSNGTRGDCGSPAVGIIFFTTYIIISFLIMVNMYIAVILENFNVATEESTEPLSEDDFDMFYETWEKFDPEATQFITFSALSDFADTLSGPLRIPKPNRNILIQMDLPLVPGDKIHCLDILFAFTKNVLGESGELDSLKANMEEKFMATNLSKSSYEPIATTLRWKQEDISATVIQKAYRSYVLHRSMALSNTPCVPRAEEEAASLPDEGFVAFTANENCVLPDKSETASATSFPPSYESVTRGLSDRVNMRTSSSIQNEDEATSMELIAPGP

SMILES: COc1cc(NC(=O)c2ccc(-c3ccc(Cl)cc3)o2)cc(OC)c1 [A-803467]
- IC50: ~10 nM
